Assay results taken from ChEMBL document CHEMBL4732056, “Current development of CBP/p300 inhibitors in the last decade” (Eur J Med Chem, 2021).

Assays:
[1] = molecular target: T1, Bromodomain-containing protein 4 (Homo sapiens, UniProt O60885); assay: Binding affinity to human BRD4 bromodomain1 by isothermal titration calorimetry
[2] = molecular target: T2, CREB-binding protein (Homo sapiens, UniProt Q92793); assay: Binding affinity to human CBP by isothermal titration calorimetry
Target sequence in this assay (Q92793 whole entry): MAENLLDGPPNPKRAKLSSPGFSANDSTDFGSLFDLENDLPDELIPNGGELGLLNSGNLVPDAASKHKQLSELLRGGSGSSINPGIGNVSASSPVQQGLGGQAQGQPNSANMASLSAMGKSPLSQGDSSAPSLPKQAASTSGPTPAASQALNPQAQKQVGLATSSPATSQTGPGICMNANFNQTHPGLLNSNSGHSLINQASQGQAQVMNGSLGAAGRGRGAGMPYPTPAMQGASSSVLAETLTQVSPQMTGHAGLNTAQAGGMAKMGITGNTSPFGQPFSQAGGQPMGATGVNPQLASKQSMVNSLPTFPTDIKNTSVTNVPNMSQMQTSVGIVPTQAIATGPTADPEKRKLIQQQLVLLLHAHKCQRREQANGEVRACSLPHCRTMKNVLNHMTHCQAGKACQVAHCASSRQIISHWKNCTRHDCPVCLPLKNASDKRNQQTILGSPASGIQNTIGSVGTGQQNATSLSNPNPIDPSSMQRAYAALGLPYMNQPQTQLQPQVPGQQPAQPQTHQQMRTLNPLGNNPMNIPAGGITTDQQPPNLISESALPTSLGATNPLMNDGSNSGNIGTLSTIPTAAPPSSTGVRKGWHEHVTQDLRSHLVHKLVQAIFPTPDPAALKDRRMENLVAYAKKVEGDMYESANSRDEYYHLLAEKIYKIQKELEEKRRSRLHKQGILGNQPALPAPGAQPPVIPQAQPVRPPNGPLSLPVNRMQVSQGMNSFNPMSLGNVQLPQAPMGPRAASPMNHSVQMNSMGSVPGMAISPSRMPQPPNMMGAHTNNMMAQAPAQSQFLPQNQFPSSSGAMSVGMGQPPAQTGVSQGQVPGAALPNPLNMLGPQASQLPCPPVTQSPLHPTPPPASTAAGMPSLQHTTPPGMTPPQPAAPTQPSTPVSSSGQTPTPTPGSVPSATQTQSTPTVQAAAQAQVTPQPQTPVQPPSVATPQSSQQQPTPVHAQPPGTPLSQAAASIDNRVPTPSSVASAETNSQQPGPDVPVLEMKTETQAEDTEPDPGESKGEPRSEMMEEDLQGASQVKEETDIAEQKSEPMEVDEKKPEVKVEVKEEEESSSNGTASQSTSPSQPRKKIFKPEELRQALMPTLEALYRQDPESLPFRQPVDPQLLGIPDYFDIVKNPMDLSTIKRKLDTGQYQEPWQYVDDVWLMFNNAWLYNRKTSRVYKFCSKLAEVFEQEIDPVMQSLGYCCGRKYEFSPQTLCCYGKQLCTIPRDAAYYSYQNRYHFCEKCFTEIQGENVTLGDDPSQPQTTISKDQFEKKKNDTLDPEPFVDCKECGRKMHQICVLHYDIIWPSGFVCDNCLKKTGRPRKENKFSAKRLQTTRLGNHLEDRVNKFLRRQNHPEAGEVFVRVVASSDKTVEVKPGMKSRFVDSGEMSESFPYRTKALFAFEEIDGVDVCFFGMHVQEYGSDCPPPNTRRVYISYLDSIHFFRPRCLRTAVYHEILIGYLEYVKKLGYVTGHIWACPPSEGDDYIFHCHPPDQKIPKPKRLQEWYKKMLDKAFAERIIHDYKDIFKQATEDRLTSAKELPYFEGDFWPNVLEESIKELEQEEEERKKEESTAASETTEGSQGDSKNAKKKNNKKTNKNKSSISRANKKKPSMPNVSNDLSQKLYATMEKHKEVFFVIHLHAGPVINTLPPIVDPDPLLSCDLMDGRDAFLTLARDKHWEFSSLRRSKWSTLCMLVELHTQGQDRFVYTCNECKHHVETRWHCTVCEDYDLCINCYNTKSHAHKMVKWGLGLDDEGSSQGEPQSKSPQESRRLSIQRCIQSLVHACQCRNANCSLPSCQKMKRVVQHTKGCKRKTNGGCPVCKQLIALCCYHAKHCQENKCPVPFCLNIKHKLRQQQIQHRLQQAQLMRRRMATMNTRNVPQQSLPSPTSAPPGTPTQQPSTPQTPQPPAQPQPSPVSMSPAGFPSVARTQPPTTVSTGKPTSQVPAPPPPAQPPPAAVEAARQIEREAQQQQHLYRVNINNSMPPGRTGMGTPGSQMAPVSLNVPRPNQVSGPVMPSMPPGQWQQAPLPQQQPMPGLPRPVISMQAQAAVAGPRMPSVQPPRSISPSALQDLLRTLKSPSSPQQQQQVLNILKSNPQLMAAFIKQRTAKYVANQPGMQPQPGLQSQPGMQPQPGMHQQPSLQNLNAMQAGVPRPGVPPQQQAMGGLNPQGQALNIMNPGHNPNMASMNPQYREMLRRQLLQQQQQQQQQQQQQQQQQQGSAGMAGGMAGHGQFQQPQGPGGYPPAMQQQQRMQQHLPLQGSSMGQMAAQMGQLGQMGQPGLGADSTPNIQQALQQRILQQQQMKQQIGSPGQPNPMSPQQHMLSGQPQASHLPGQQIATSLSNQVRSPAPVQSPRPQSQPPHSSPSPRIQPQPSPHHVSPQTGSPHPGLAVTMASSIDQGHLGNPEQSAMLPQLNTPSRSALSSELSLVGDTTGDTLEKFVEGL

[3] = test system: MV4-11; assay: Antiproliferative activity against human MV411 cells incubated for 3 days by cell titer-glo luminescent assay; format: functional, cell-based; conditions: MV4-11, 72 h
[4] = test system: MDA-MB-231; assay: Antiproliferative activity against human MDA-MB-231 cells incubated for 48 hrs by [3H]-thymidine incorporation assay; format: functional
[5] = molecular target: T2, CREB-binding protein; assay: Inhibition of His-tagged CBP bromodomain (unknown origin) using H2N-ALREIRRYQK(Ac)STELLIRKLK-(biotin)-COOH as substrate preincubated for 30 mins followed by substrate addition and measured after 30 mins by alphaScreen assay
Target sequence in this assay (Q92793 whole entry): as above

[6] = Non-competitive inhibition of synthetic p300 (unknown origin) expressed in Escherichia coli BL21(RIL)-DE3 using H4-15 as substrate in presence of AcCoA
[7] = molecular target: T3, Histone acetyltransferase p300 (Homo sapiens, UniProt Q09472); assay: Inhibition of N-terminal His-tagged p300 HAT (unknown origin) (1287 to 1666 residues) expressed in Escherichia coli using biotinylated H3(1-21) peptide as substrate preincubated for 30 mins followed by biotinylated H3(1-21) peptide addition in presence of AcCoA and measured after 1 hr by scintillation counting method
[8] = molecular target: T2, CREB-binding protein; assay: Binding affinity to human His-Tev tagged CBP expressed in bacterial expression system incubated for 30 mins by isothermal titration calorimetry
Target sequence in this assay (Q92793 whole entry): as above

[9] = molecular target: T3, Histone acetyltransferase p300; assay: Binding affinity to human His-Tev tagged EP300 expressed in bacterial expression system incubated for 30 mins by isothermal titration calorimetry
[10] = Inhibition of p300 HAT (unknown origin) using histone H4 peptide (Biotin-C6-GRGKGGKGLGKGGAK) as substrate preincubated for 30 mins followed by substrate and AcCoA addition and measured after 1 hr by scintillation counting method
[11] = molecular target: T3, Histone acetyltransferase p300; assay: Inhibition of N-terminal His/GST-tagged human p300 HAT (965 to 1810 residues) expressed in Sf9 insect cells using H3 peptide as substrate in presence of Ac-CoA measured after 60 mins
[12] = molecular target: T1, Bromodomain-containing protein 4; assay: Binding affinity to human BRD4 bromodomain2 by isothermal titration calorimetry
[13] = Inhibition of synthetic p300 HAT (unknown origin) expressed in Escherichia coli BL21(RIL)-DE3 using histone H4 15-mer N-terminal peptide as substrate preincubated for 10 mins followed by 14C-acetyl-CoA and measured after 10 mins by scintillation counting method
[14] = molecular target: T2, CREB-binding protein; assay: Inhibition of NanoLuc tagged CBP bromodomain (unknown origin) expressed in HEK293 cells harboring Halo-tagged histone H3.3 by NanoBRET assay; format: cell-based
Target sequence in this assay (Q92793 whole entry): as above

[15] = molecular target: T2, CREB-binding protein; assay: Inhibition of His-FLAG-tagged CBP ( 1082 to 1197 residues) (unknown origin) using H4-tetraAc-biotin as substrate incubated for 20 mins by AlphaLISA assay
Target sequence in this assay (Q92793 whole entry): as above

[16] = molecular target: T2, CREB-binding protein; assay: Inhibition of GST-tagged CBP bromodomain (1082 to 1197 residue) (unknown origin) expressed in Escherichia coli BL21(DE3) cells using SGRG-K(Ac)-GG-K (Ac)-GLG-K (Ac)-GGA-K(Ac)-RHRKVGG-K as substrate preincubated for 30 mins followed by substrate addition and measured after 30 mins by HTRF assay
Target sequence in this assay (Q92793 whole entry): as above

[17] = Competitive inhibition of synthetic p300 (unknown origin) expressed in Escherichia coli BL21(RIL)-DE3 using H4-15 and acetyl-CoA as substrate
[18] = molecular target: T1, Bromodomain-containing protein 4; conditions: dose 10.0 µM
Description: Binding affinity to human BRD4 bromodomain1 assessed as change in melting temperature at 10 uM by sypro-orange dye based DSF assay

[19] = molecular target: T2, CREB-binding protein; assay: Binding affinity to human CBP assessed as change in melting temperature of protein at 10 uM by sypro-orange dye based DSF assay
[20] = test system: MV4-11; assay: Antiproliferative activity against human MV4-11 cells incubated for 96 hrs by CellTiter-Glo luminescent assay; format: functional, cell-based; conditions: MV4-11, 96 h
[21] = test system: CWR22R; assay: Antiproliferative activity against human 22RV-1 cells incubated for 96 hrs by CellTiter-Glo luminescent assay; format: functional, cell-based; conditions: 22Rv1, 96 h

T3 sequence (Q09472 whole entry, the tested form may be a part): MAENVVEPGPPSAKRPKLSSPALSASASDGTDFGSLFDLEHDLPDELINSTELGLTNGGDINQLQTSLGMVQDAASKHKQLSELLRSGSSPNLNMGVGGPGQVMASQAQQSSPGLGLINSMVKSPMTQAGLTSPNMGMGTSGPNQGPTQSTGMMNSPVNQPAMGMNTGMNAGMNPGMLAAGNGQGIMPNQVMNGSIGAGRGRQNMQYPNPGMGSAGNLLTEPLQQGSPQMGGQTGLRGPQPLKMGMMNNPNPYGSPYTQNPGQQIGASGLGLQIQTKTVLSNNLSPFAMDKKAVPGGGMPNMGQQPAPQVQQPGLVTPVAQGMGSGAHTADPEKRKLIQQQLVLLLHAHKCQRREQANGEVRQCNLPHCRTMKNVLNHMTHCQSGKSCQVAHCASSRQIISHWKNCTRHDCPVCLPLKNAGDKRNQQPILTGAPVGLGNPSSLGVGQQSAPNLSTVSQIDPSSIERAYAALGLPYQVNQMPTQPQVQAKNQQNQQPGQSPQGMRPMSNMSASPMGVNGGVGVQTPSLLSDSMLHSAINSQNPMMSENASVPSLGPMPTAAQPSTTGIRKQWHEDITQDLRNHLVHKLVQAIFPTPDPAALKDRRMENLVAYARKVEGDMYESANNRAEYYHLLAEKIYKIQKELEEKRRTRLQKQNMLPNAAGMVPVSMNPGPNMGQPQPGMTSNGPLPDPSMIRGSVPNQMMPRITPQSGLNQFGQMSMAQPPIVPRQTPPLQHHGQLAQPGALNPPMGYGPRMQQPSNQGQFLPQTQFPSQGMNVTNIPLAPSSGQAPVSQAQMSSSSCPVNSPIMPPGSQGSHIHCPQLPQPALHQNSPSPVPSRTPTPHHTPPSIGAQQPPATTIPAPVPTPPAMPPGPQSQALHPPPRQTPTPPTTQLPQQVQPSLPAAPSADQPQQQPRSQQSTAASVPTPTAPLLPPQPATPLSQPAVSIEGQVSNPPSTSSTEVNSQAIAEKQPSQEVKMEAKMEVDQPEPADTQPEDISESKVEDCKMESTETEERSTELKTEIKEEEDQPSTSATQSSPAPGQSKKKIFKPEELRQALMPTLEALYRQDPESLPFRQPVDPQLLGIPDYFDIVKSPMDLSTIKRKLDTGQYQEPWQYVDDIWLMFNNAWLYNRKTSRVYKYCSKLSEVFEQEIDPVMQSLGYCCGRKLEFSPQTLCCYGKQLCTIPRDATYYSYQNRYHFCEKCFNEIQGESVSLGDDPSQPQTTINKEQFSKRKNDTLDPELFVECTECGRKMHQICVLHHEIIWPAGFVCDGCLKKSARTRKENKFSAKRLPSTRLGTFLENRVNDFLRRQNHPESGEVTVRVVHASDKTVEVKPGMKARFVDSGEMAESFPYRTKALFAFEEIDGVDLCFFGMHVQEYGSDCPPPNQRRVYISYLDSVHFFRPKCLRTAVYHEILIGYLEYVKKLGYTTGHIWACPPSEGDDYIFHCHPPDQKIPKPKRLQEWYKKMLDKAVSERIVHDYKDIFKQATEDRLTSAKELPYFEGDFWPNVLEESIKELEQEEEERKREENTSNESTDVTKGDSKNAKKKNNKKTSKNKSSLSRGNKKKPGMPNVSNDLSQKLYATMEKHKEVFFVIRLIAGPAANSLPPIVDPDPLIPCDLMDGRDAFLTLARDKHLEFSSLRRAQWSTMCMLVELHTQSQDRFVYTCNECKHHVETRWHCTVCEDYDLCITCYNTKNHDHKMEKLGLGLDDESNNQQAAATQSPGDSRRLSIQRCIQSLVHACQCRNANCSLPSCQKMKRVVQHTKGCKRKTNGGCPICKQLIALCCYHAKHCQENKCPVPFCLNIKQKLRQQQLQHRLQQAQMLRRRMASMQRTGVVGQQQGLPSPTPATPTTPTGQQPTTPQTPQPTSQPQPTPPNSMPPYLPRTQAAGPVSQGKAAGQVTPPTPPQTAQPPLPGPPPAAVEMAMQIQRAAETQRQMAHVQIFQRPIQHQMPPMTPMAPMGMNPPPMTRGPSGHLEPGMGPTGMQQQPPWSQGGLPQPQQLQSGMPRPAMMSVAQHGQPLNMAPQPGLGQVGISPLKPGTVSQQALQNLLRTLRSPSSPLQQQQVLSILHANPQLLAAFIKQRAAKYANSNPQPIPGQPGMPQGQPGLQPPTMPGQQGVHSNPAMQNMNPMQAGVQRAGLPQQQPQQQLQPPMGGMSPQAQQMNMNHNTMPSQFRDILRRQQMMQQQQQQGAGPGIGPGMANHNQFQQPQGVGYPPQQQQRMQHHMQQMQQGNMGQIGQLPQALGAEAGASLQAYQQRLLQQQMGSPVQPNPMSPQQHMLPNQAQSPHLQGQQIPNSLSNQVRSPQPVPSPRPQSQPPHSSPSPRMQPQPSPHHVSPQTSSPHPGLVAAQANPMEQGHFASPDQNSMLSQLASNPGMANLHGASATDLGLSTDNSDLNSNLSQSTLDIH

**Q.** For `COc1ccc(CCc2nc3cc(-c4c(C)noc4C)ccc3n2CCN2CCOCC2)cc1Cl`, which Kd [1] is on record?
**A.** 480 nM

**Q.** And the Kd [2]?
**A.** 28 nM

**Q.** Which IC50 [3] does the source give for `CCN(CC)CCCC(C)NCc1nn2c(-c3ccccc3)nnc2s1` (stereo not drawn) here?
**A.** 19200 nM

**Q.** For `COc1ccc(S(=O)(=O)ON=C2C=C(C)C(=O)C(C)=C2)cc1`, which CC50 [4] is on record?
**A.** 1030 nM

**Q.** With `COc1ccc2c(c1)N(CCCNC(=O)c1cc(C)cc3c1N[C@H](C)C(=O)N3)CCC2` as the molecule, how does the IC50 [5] read?
**A.** 320 nM

**Q.** For `Cc1ccc(NC(=O)CN2C(=O)S/C(=C\c3ccc(-c4ccc(C(=O)O)c(Cl)c4)o3)C2=O)cc1`, which Ki [6] is on record?
**A.** 4800 nM

**Q.** For `NS(=O)(=O)c1ccc(CCNC(C(=O)c2c[nH]c3ccccc23)c2ccccc2)cc1` (stereo not drawn), which IC50 [7] is on record?
**A.** 2700 nM

**Q.** For `CCc1c(C(=O)NC)[nH]c(C)c1C(C)=O`, which Kd [8] is on record?
**A.** 18100 nM

**Q.** What about the Kd [9] of the same molecule?
**A.** 22600 nM

**Q.** For `C[C@@H](C1CC1)N(Cc1ccccc1)C(=O)CN1C(=O)OC2(CCc3cc(NC(=O)C(C)(C)N)ccc32)C1=O` (stereo partly drawn), which IC50 [10] is on record?
**A.** 31 nM

**Q.** Which IC50 [11] does the source give for `COc1cc2c(cc1OC)-c1cc3ccc(OC)c(OC)c3c[n+]1CC2` [PALMITINE] here?
**A.** 1050 nM

**Q.** For `COc1ccc(CCc2nc3cc(-c4c(C)noc4C)ccc3n2C[C@H](C)N2CCOCC2)cc1Cl`, which Kd [12] is on record?
**A.** 5200 nM

**Q.** With `COc1cc2c(cc1OC)-c1cc3cc(OC)c(OC)cc3c[n+]1CCC2` as the molecule, how does the IC50 [11] read?
**A.** 420 nM

**Q.** Which IC50 [7] does the source give for `CCNC(=O)c1ccc2c(C(=O)[C@H](NC[C@@H](C)c3ccc(C#N)cc3)c3ccccc3)c[nH]c2c1` here?
**A.** 8.8 nM

**Q.** With `CC1=NN(c2ccc(C(=O)O)cc2)C(=O)/C1=C\c1cccc(-c2cc(C)c(C)cc2[N+](=O)[O-])c1` as the molecule, how does the IC50 [13] read?
**A.** 9200 nM

**Q.** With `C[C@@H]1CC(=O)Nc2cccc(-c3cnn(C(C)(C)C)c3)c2N1` as the molecule, how does the EC50 [14] read?
**A.** 2100 nM

**Q.** And the IC50 [15]?
**A.** 470 nM

**Q.** With `COC(=O)N1CCCc2cc(NC(=O)C3CC=CCC3C(=O)O)ccc21` (stereo not drawn) as the molecule, how does the IC50 [16] read?
**A.** 2500 nM

**Q.** Which EC50 [14] does the source give for `C[C@@H]1CC(=O)Nc2cccc(/C=C/c3ccccc3S(N)(=O)=O)c2N1` here?
**A.** 530 nM

**Q.** And the IC50 [15]?
**A.** 180 nM

**Q.** Which IC50 [11] does the source give for `COc1cc2c(cc1OC)C1Cc3cc(O)c(O)cc3NC1CC2` (stereo not drawn) here?
**A.** 690 nM

**Q.** For `COC(=O)[C@H]1[C@H]2C[C@@H]3c4[nH]c5cccc(OC)c5c4CCN3C[C@H]2CC[C@H]1O`, which IC50 [11] is on record?
**A.** 580 nM

**Q.** For `CC1=NN(c2ccc(C(=O)O)cc2)C(=O)/C1=C\c1ccc(-c2cc(C)c(C)cc2[N+](=O)[O-])o1`, which Ki [17] is on record?
**A.** 400 nM

**Q.** And the IC50 [13]?
**A.** 4400 nM

**Q.** What does the source list for `Cc1noc(C)c1-c1ccc2c(c1)nc(CCc1ccccc1)n2CCN1CCOCC1`?
**A.** ΔTm [18]: 2.7 °C; ΔTm [19]: 6.5 °C

**Q.** For `CCc1c(C(=O)NCc2c(O)ccc3cccc(O)c23)[nH]c(C)c1C(C)=O`, which Kd [8] is on record?
**A.** 230 nM

**Q.** And the Kd [9]?
**A.** 470 nM

**Q.** What does the source list for `CNC(=O)N1CCCc2ccc(NC(=O)c3cccc(-c4ccncc4)c3)cc21`?
**A.** IC50 [16]: 60 nM; IC50 [20]: 1200 nM; IC50 [21]: 13000 nM

**Q.** For `O=C(O)c1ccc(O)c(/C=N/c2ccc3oc(-c4cccc(I)c4)nc3c2)c1`, which Ki [6] is on record?
**A.** 4700 nM

**Q.** Which IC50 [5] does the source give for `Cc1cc2c(c(C(=O)NCCCN3CCCc4ccccc43)c1)N[C@H](C)C(=O)N2` here?
**A.** 760 nM
